The results in this text go back to publication PMC9732821, “Neurotrophic Activity and Its Modulation by Zinc Ion of a Dimeric Peptide Mimicking the Brain-Derived Neurotrophic Factor N-Terminal Region” (ACS Chemical Neuroscience, 2022).

For the experiment, the system named is TrkB-EGFP. The experiment in a line: TrkB dimerization, number & brightness (N&B) in living SH-SY5Y cells. It counts as cell-based, human. To be noted: 150 ng/mL BDNF or 10 μM d-bdnf, within 30 min; f-EGFP monomeric reference; two independent experiments. The protocol: Figure 1 Activation of the TrkB receptor by BDNF and its mimetic peptide ligands. (A) Schematic picture of the human TrkB receptor fused to the EGFP construct (hTrkB-EGFP); recombinant human mature BDNF (hBDNF); monomeric peptide, m-bdnf; dimeric peptide, d-bdnf; scrambled s-bdnf. (B) WB showing Tyr phosphorylation (p-Tyr, top) and total TrkB levels (bottom) in SH-SY5Y cells transfected with hTrkB-EGFP in the absence (ctrl) or presence of 10 min stimulation with 150 ng/mL BDNF or 10 μM m-bdnf, d-bdnf, or s-bdnf. Samples were immunoprecipitated (IP) with the anti-GFP antibody before WB. […] (C) Scatter dot plot of ERK (left) and AKT (right) phosphorylation levels detected in differentiated SH-SY5Y cells, after stimulation with the same treatments as in (B). […] (G) Bar graph of mean ± SD ‘B-1’ values retrieved from N&B analysis for all the different conditions measured. […]
The same TrkB-GFP expressing SH-SY5Y cells were used to deeper investigate the mechanism of TrkB activation induced by d-bdnf, using an advanced imaging approach in living cells. We exploited a fluorescence correlation technique, which directly correlates the brightness of each fluorescent pixel of the image to the number of TrkB molecules averagely populating that pixel during the observation time (number & brightness technique—N&B[34],[35]). […]

Regarding “HSDPARRGELSVC-C-VSLEGRRAPDSH (disulfide) [d-bdnf]”, the “TrkB monomer/dimer state at plasma membrane” value was “shift toward the dimeric form”.

B1: brain-derived neurotrophic factor (protein, UniProt P23560 1-247, looked up)
chain: MTILFLTMVISYFGCMKAAPMKEANIRGQGGLAYPGVRTHGTLESVNGPKAGSRGLTSLADTFEHVIEELLDEDQKVRPNEENNKDADLYTSRVMLSSQVPLEPPLLFLLEEYKNYLDAANMSMRVRRHSDPARRGELSVCDSISEWVTAADKKTAVDMSGGTVTVLEKVPVSKGQLKQYFYETKCNPMGYTKEGCRGIDKRHWNSQCRTTQSYVRALTMDSKKRIGWRFIRIDTSCVCTLTIKRGR
modifications: full-length
notes: full-length human BDNF produced recombinantly in Escherichia coli
On to B1, for which the “TrkB monomer/dimer state at plasma membrane” value is given as “shift toward the dimeric form”.
